Columns and labels:
[1] = tested on: rhabdomyosarcoma cell line (NUTOS); assay: Survival rate of confluent NUTOS cells 15 hours after adding anticancer agent (trypan blue count); format: cell-based, human; details: serum-free DMEM/F12, 15 hours, n=5, FIG. 1
Method: A rhabdomyosarcoma cell line (NUTOS) established from alveolar rhabdomyosarcoma developed in the tongue of a child was used. […] In FIG. 1, the horizontal axis represents the concentration (ng/ml) of the added anticancer agent and the longitudinal axis represents the survival rate (%) of the cells after 15 hours (n=5). 1. Cells were plated on a plate and cultured to a confluent state using a DMEM/F12 culture medium supplemented with 15% fetal bovine serum. 2. The culture medium was removed and replaced with a serum-free DMEM/F12 culture medium supplemented with a given amount of an anticancer agent, and the cells were cultured for 15 hours. 3. The culture medium was removed, and the cells were washed with Hanks' solution and detached with trypsin. The detached cells were transferred to a tube and centrifuged. 4. The supernatant was removed, and the cells were suspended in a given amount of a culture medium. 5. An aliquot of the cell suspension was taken and the same amount of trypan blue was added thereto. Then, the cells were counted using a hemocytometer.

[2] = tested on: rhabdomyosarcoma cell line (HUMENS); assay: Survival rate of confluent HUMENS cells 15 hours after adding anticancer agent (trypan blue count); format: cell-based; details: FIG. 2
Method: 1. Cells were plated on a plate and cultured to a confluent state using a DMEM/F12 culture medium supplemented with 15% fetal bovine serum.
2. The culture medium was removed and replaced with a serum-free DMEM/F12 culture medium supplemented with a given amount of an anticancer agent, and the cells were cultured for 15 hours.
3. The culture medium was removed, and the cells were washed with Hanks' solution and detached with trypsin. The detached cells were transferred to a tube and centrifuged.
4. The supernatant was removed, and the cells were suspended in a given amount of a culture medium.
5. An aliquot of the cell suspension was taken and the same amount of trypan blue was added thereto. Then, the cells were counted using a hemocytometer.
The percentage of incorporation of a dye was counted 15 hours after adding an anticancer agent (s-PTX, s-CDDP, s-CBDCA, s-ADM, or s-CPA (all of which are in Example 8), PTX, CDDP, CBDCA, ADM, or CPA (all of which are in Comparative Example 2)) to confluent cells (HUMENS) in the same manner as in Example 7 or Comparative Example 1, except that a rhabdomyosarcoma cell line (HUMENS) established from alveolar rhabdomyosarcoma obtained from the mammary gland was used as the cells in place of NUTOS.

NUTOS cells = assay: Incorporation of serotonin into NUTOS cells (culture medium level, anti-serotonin antibody immunostaining); format: cell-based, human; details: serotonin in fetal bovine serum added to culture medium
Method: When fetal bovine serum containing serotonin was added to a culture medium containing this NUTOS cell line, the amount of serotonin in the culture medium was decreased. […] The detailed mechanism of this incorporation has not been elucidated yet, and also the role of serotonin incorporated therein has not been elucidated yet.

Structure (SMILES) | anticancer effect (survival rate of the cells after 15 hours) [1] | anticancer effect (survival rate of the cells after 15 hours) [2] | incorporation into NUTOS cells (NUTOS cells)
COc1cccc2c1C(=O)c1c(O)c3c(c(O)c1C2=O)C[C@@](O)(C(=O)CO)C[C@@H]3O[C@H]1C[C@H](N)[C@H](O)[C@H](C)O1.Cl [ADM, adriamycin] | only a slight anticancer effect | only a slight anticancer effect | –
O=P1(N(CCCl)CCCl)NCCCO1 (centres unmarked) [CPA, cyclophosphamide] | only a slight anticancer effect | exhibited an anticancer effect by itself | –
CC(=O)O[C@H]1C(=O)[C@@]2(C)[C@H]([C@H](OC(=O)c3ccccc3)[C@]3(O)C[C@H](OC(=O)[C@H](O)[C@@H](NC(=O)c4ccccc4)c4ccccc4)C(C)=C1C3(C)C)[C@]1(OC(C)=O)CO[C@@H]1C[C@@H]2O [PTX, paclitaxel] | exhibited an anticancer effect by itself | exhibited an anticancer effect by itself | –
NCCc1c[nH]c2ccc(O)cc12 [serotonin] | – | – | specifically incorporated into the NUTOS cells
N.N.O=C([O-])C1(C(=O)[O-])CCC1.[Pt+2] [CBDCA, carboplatin] | exhibited an anticancer effect by itself | exhibited an anticancer effect by itself | –
[NH2][Pt]([NH2])([Cl])[Cl] [CDDP, cisplatin] | exhibited an anticancer effect by itself | exhibited an anticancer effect by itself | –

— patent US20140171629A1, “MEDICINAL AGENT FOR MEDICAL APPLICATIONS” (HITACHI ALOKA MEDICAL, LTD., priority 2011, published 2014)
